Molecules are shown by their SMILES.

The nature of test [1]: Inhibitory activity against rat lymphocytes. Set-up: concentration or dose not given beside the values.
The next test addresses T1, Progesterone receptor (Homo sapiens, UniProt P06401).
T1 sequence (P06401 whole entry): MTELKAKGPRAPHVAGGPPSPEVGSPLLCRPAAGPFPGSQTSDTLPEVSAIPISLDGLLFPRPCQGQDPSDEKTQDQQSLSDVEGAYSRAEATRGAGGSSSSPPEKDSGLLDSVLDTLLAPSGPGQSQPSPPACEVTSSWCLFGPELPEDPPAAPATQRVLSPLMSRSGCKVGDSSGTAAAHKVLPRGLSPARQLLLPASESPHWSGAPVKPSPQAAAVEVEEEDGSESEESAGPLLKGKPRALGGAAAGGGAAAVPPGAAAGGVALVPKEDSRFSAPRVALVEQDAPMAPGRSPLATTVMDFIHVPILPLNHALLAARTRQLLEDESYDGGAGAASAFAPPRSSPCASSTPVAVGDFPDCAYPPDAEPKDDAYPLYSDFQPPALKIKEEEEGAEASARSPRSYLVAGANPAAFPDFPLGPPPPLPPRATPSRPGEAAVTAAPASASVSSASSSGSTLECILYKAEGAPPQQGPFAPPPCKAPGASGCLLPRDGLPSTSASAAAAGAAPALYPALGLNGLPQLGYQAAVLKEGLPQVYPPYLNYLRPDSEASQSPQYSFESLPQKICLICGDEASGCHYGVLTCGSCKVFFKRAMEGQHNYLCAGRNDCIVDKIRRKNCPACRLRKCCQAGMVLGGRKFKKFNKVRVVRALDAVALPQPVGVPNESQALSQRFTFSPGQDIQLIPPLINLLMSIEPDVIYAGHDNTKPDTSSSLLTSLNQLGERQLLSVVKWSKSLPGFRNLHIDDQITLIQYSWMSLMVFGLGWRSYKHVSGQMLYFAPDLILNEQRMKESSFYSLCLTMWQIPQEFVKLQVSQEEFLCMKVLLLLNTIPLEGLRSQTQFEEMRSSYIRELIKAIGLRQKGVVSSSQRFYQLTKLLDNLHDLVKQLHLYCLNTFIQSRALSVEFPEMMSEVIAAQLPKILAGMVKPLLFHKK
As to the kind of experiment: Inhibition of human progesterone receptor.

Test [2] addresses T2, Glucocorticoid receptor (Homo sapiens, UniProt P04150).
T2 sequence (P04150 whole entry): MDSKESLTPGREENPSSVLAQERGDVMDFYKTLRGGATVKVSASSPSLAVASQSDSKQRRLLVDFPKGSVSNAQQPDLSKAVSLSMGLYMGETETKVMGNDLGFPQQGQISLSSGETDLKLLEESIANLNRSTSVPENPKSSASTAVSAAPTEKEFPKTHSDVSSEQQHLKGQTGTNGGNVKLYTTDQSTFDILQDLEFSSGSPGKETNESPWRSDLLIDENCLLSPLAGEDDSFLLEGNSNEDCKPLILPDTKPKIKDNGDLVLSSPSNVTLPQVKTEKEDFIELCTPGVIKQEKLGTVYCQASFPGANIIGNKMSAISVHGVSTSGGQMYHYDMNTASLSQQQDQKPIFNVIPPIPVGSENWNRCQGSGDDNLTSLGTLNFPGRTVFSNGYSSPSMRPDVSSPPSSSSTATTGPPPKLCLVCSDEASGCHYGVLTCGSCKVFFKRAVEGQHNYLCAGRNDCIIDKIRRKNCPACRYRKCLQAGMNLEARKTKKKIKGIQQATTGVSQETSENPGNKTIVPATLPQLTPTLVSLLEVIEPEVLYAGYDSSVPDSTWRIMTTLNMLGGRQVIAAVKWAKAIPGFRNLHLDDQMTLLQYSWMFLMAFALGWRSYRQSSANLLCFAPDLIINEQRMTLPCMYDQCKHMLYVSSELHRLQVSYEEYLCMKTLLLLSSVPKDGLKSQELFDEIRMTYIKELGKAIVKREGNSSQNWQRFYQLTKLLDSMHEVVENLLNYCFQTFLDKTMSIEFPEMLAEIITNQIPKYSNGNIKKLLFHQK
Briefly: Inhibition of human glucocorticoid receptor.

The target in test [3] is Glucocorticoid receptor (Rattus norvegicus) (UniProt P06536). As to the kind of experiment: Inhibition of glucocorticoid receptor mediated tyrosine aminotransferase activity. The following applies: concentration not given here. The arrangement: concentration or dose not given beside the values.
The target of test [4] is T3, Thyroid hormone receptor beta (Homo sapiens, UniProt P10828).
T3 sequence (P10828 whole entry): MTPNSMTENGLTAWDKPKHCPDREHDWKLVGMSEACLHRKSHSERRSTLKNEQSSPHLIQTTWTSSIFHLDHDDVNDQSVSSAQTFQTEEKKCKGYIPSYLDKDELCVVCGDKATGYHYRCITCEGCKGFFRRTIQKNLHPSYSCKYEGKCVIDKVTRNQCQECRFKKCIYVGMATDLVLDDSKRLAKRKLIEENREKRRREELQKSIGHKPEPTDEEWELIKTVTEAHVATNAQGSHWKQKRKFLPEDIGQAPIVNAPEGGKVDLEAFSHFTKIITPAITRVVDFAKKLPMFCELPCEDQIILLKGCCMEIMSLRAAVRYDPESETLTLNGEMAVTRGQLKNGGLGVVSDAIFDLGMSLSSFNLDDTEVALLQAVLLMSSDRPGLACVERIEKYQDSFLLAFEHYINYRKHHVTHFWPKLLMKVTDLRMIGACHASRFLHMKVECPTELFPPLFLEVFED
As to the kind of experiment: Inhibition of human Thyroid hormone receptor beta.

Test [5] has as its target T2, Glucocorticoid receptor. As to the kind of experiment: Inhibition of glucocorticoid receptor dependent alkaline phosphatase activity. It counts as functional.
Test [6] concerns the target T4, Thyroid hormone receptor alpha (Homo sapiens, UniProt P10827).
T4 sequence (P10827 whole entry): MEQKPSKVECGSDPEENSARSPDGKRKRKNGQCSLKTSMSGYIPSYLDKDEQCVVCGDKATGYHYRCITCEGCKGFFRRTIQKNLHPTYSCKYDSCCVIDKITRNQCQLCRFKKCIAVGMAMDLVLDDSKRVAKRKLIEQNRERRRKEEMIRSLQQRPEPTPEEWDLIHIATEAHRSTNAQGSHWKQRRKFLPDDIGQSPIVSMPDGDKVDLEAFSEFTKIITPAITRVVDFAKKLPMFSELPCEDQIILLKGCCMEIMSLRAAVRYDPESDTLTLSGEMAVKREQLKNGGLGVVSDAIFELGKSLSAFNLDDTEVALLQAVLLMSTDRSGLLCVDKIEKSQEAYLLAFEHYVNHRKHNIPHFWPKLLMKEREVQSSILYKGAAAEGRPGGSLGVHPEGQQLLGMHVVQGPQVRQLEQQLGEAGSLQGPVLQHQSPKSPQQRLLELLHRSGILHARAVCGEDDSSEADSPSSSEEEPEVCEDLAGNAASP
As to the kind of experiment: Inhibition of human Thyroid hormone receptor alpha.

Test [7] can be described thus: Inhibitory activity of the Compound against rat lymphocytes.

Glucocorticoid receptor (Rattus norvegicus), sequence (P06536 whole entry, looked up): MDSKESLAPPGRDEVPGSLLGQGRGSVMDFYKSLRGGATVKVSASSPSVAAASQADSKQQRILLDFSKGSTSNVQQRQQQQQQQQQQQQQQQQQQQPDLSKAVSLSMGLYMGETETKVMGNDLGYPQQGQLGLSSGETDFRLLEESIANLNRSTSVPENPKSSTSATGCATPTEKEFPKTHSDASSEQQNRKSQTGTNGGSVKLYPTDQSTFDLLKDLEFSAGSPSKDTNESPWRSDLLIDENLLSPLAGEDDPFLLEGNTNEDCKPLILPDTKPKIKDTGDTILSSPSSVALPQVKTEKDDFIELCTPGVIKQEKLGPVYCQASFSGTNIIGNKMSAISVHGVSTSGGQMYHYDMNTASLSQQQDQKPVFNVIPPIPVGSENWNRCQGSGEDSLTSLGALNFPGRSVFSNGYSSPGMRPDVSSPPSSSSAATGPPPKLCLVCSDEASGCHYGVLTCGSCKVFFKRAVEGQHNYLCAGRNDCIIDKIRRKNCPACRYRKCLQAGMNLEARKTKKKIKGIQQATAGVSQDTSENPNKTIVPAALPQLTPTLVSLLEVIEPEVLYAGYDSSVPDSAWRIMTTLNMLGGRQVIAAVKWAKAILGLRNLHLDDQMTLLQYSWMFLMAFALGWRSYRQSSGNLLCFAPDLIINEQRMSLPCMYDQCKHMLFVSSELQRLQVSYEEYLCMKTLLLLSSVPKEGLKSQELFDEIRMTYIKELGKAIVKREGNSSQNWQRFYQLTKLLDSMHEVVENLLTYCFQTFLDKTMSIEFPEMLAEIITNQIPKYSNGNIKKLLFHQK

The term Inhibition denotes the share of the control response that was lost under treatment. The term Ki denotes the dissociation constant of the complex between target and ligand, obtained from inhibition or displacement. As usually defined, the inhibition is how much of the control response was suppressed. `C#C[C@]1(O)CC[C@H]2[C@@H]3CCC4=CC(=O)CCC4=C3[C@@H](c3ccc(N(C)CCCC(=O)N(C)C4CC[C@@]5(C)[C@@H](C4)C[C@@H](O)[C@@H]4[C@@H]5C[C@H](O)[C@]5(C)[C@@H]([C@H](C)CCC(=O)O)CC[C@@H]45)cc3)C[C@@]21C` (stereo not given in full): in test [1], the Inhibition amounted to 4%. Moreover, the Ki was 0.96 nM on Progesterone receptor; 0.27 nM on Glucocorticoid receptor [2]; above 2250 nM in test [4]; 1.2 nM at Glucocorticoid receptor [5]; above 1250 nM in test [6]. The inhibition in test [3] is 11%.
For the molecule `C#C[C@]1(O)CC[C@H]2[C@@H]3CCC4=CC(=O)CCC4=C3[C@@H](c3ccc(N(C)CCOCCO[C@H]4CC[C@@]5(C)[C@@H](C4)C[C@@H](O)[C@@H]4[C@@H]5C[C@H](O)[C@]5(C)[C@@H]([C@H](C)CCC(=O)O)CC[C@@H]45)cc3)C[C@@]21C`, in test [1], the Inhibition is 43%. Moreover, the Ki on Progesterone receptor was 0.48 nM; at Glucocorticoid receptor [2], 0.17 nM; in test [4] it was above 2250 nM; at Glucocorticoid receptor [5], 1.1 nM; in test [6], above 1250 nM. The molecule also gave an inhibition in test [3] of 60%.
As for `C#C[C@]1(O)CC[C@H]2[C@@H]3CCC4=CC(=O)CCC4=C3[C@@H](c3ccc(N(C)CCNC(=O)OC4CC[C@@]5(C)[C@@H](C4)C[C@@H](O)[C@@H]4[C@@H]5C[C@H](O)[C@]5(C)[C@@H]([C@H](C)CCC(=O)O)CC[C@@H]45)cc3)C[C@@]21C` (stereo not given in full), the Inhibition in test [7] worked out at 14%. Also, the Ki on Progesterone receptor is 0.39 nM; on Glucocorticoid receptor [2] it was 0.39 nM; in test [4], above 2250 nM; at Glucocorticoid receptor [5] it was 1.4 nM; in test [6], above 1250 nM.

Values taken from ChEMBL document CHEMBL1138676, “Liver-selective glucocorticoid antagonists: a novel treatment for type 2 diabetes” (J Med Chem, 2004).
